Compound | melting point [°C]
Cc1cc(C2(O)C(=O)N(Cc3ccccc3)c3ccccc32)cc(C)c1O[Si](C)(C)C(C)(C)C (centres undefined) | 147
COc1ccc(C(O)C(=O)c2ccccc2)cc1F (centres undefined) | 127 to 130
C=C(CC(=O)OCC)c1cc(F)c2cc(OC)ccc2c1 | 50 to 52
CCc1cccc2[nH]c(C(=O)O)cc(=O)c12 | 272 to 273
COc1ccccc1COc1nc2c(oc3ccccc32)c(-c2ccc3c(c2)OCCO3)c1C(=O)O | 179
CCC1(CCCCN2CCN(c3ccc(F)c(Cl)c3)CC2)C(=O)Nc2ccccc21 (centres undefined) | 121 to 124
COc1cc(NS(C)(=O)=O)c(Oc2ccccc2)cc1C(C)=O | 108 to 110
CCC(O)P(=O)(OCc1ccccc1)OCc1ccccc1 (centres undefined) | 81 to 82
CC(C)(C)OC(=O)NCc1ccccc1-c1ccc(CO)cc1 | 89 to 93
COCc1cnc2c(NC(=O)c3c(Cl)cccc3Cl)cccc2c1OCc1cccnc1 | 174 to 176
CCc1nn(C(C)CCCc2ccccc2)c2nc(Cc3ccc(-c4cccc(N)c4)cc3)[nH]c(=O)c12 (centres undefined) | 108
CCOC(OCC)N1C(=O)OC(C)(C)c2cc(-c3cc(F)cc(C#N)c3)ccc21 | 123 to 124
CCCSc1nccn2c(=O)c(C(=O)OCC)cnc12 | 112
CC1=CCC2(C)C(CCC3C4CCC(=O)C4(C)CCC32)C1 (centres undefined) | 124 to 126
CC(C)NC(=O)NC1CCC(=O)c2ccccc21 (centres undefined) | 185 to 188
COC(=O)C1=C(CCc2ccccc2)NC(CC(=O)N2CCN(C)CC2)=C(C(=O)OC)C1c1ccccc1Cl (centres undefined) | 138
CCOC(=O)CCCCC(NS(=O)(=O)c1ccc(C)cc1)c1ccc2ccccc2c1 (centres undefined) | 87 to 91
Cn1ccc(CON2C(=O)c3ccccc3C2=O)n1 | 122 to 124
O=C(O)CCSc1nnc(S)s1 | 105 to 108
C=C(C)C(=O)OCCCc1ccc2c(c1)N(C(C)(C)C)N(O)N2 | 62 to 63.2

Compound | melting point [°C]
CCOC(=O)C(=O)c1cn(Cc2ccc(C(C)(C)C)cc2)c2cc(-c3ccc(OC(F)(F)F)cc3)ccc12 | 146 to 147
CCCCN(CCCC)c1nc(Nc2cccc3c2C(=O)c2ccccc2C3=O)nc(N(CCCC)CCCC)n1 | 128 to 133
CN1CCC[C@@H]1Cc1cn(Cc2ccccc2)c2ccc(CS(=O)(=O)N(C)C(c3ccccc3)c3ccccc3)cc12 | 117 to 120
Nc1nc(Cl)cc(NCCO)n1 | 143 to 146
COc1ccc(-c2nc(-c3ccccc3)nc(-c3ccccc3)n2)c(O)c1 | 211 to 212
COc1ccc(NC(C)=O)c(O)c1C(C)=O | 160 to 162
CCn1c(-c2ccc(F)cc2)c(OCCOc2ccc(C(C)=C3SC(=O)NC3=O)cc2)c(=O)c2ccccc21 | 214 to 216
CN(C(=O)NN1CC=CCC1)c1ccccc1 | 99 to 99.5
COc1ccccc1CNc1ccc2cc(Nc3ncco3)ccc2n1 | 205
CCN1C(=O)CN(C(=O)OCc2ccccc2)Cc2cc(OC)c([N+](=O)[O-])cc21 | 55 to 56
CC(C)=C[C@@H](OC(=O)C=C(C)N[C@@H](C)c1cccc2ccccc12)C(Cl)(Cl)Cl | 209 to 210
CCCC1=C(C(=O)OCC)C(c2cc(F)ccc2F)c2c[nH]nc2N1 (centres undefined) | 168 to 169
COc1nc2ccc(Br)cc2c2c1Cc1ccccc1-2 | 150 to 152
COC(=O)N1c2cc(F)ccc2NC(=O)C1(C)C | 166 to 168
COc1ccc(NC(=O)c2ccccc2F)cc1 | 83.1 to 84.3
Cc1c(Br)c2c(c3c1C(c1ccc(C(C)C)cc1)CO3)CCCC2 (centres undefined) | 108 to 109
O=C(c1ccc(-n2ccnc2-c2ccccc2)cc1)C1CC1 | 155 to 157
COc1cc(C(=O)Nc2cc(F)ccc2C(=O)O)cc(OC)c1OC | 232 to 233
Cn1cc(-c2cc(-c3cnc4c(c3)CC(=O)N4)ccn2)n(-c2ccc(C(C)(C)C#N)cc2)c1=O | 263
CNC(=O)N(O)CCNC(=O)c1cccc(Oc2ccc(Cl)cc2)c1 | 157 to 158

Compound | melting point [°C]
Cc1ccc(N2C(=O)C(O)=C(C(=O)c3ccc(C(C)C)cc3)C2c2ccc(C(C)C)cc2)nn1 (centres undefined) | 271
COc1cc(Cl)cc(Cn2c(=O)cc(C(F)(F)F)n(C)c2=O)c1Cl | 117 to 123
CN(CCOc1ccc2c(c1)OC(C)(C)C=C2c1ccc2ccccc2c1)Cc1ccccc1 | 112 to 115
O=Cc1ccc(C2CCCc3cncn32)cc1 (centres undefined) | 131
Cc1c2c(c(Cc3ccc(C(C)C)cc3)c(C)c1NC(=O)CC(C)(C)C)OCC2 | 201 to 202
O=C(O)C1CN(S(=O)(=O)c2ccc3cc(Br)ccc3c2)CCN1C(=O)C1CCN(c2ccncc2)CC1 (centres undefined) | 216 to 222
O=C(CCc1ccccc1)N[C@H](Cc1ccc(C(F)(F)F)cc1)[C@@H](O)c1ccc(Cl)nc1 (racemic) | 149 to 150
CCCNC(=O)c1ccc(CCCc2cc(S(C)(=O)=O)ccc2OCc2ccccc2)cc1 | 121
COC(=O)c1nc(-c2cc(N(C)C)c(Cl)cc2F)cc(N)c1Cl | 113 to 115
CC(C)(C)OC(=O)NCc1ccc(Nc2ncc(Br)cc2[N+](=O)[O-])cc1 | 178 to 180
O=C1N(Cc2ccc3nonc3c2)c2ccccc2C12COc1cc3c(cc12)OCCO3 (centres undefined) | 164 to 166
Cc1ccc(C2CC(CN(C)C)Oc3ccccc32)cc1 (centres undefined) | 114 to 116
CC(C)(COCc1cccc(Oc2ccccc2)c1)c1ccccc1C(=O)O | 98.5 to 102
Cc1cc(C)c2c(c1O)C(N1CCCC1)C1CCCCC21 (centres undefined) | 96 to 97
CC(=O)N1CCN(NC(=O)c2cccs2)CC1 | 212 to 213
CCCn1c(=O)c2c(nc(/C=C/c3ccc(Cl)cc3)n2C)n(CCC)c1=O | 175 to 187
CCN(CC)C(=O)c1cc(OC)c(OC)cc1-c1c(C(=O)N(CC)CC)ccc2c1OCO2 | 148 to 149
CC(C)(C)c1cc(CC(C)(C)C2OCCS2)cc(C(C)(C)C)c1O (centres undefined) | 77

Next, values leading:

melting point [°C] | Compound
118 to 121 | CCc1nn2ccccc2c1[N+](=O)[O-]
65 | CCCCC(Cc1cccnc1)(C(=O)NO)S(=O)(=O)c1ccc(OC)cc1 (centres undefined)
184 | O=C(/C=C/c1cccc(S(=O)(=O)N2CCN(CCc3ccc4ccccc4c3)CC2)c1)NO
137 to 138 | CCCCNc1cc(CN(Cc2ccccc2)C(=O)c2ccccc2)cc(S(N)(=O)=O)c1Oc1ccccc1
128 to 130 | CCCC1CCC(C)C(CCC2CC(O)CC(=O)O2)C1COC(=O)C(C)(C)CC (centres undefined)
138 to 139 | CC(N)=CC(=O)NC1CCCC1
119 to 122 | Nc1ccc(Sc2ccccc2)nc1N
105 to 107 | COc1ccc(COc2cccc(OC)c2C(C)=O)cc1
128 to 129 | COc1cccc(OC2COc3ccc(OCc4ccc5ccccc5n4)cc3C2O)c1 (centres undefined)
173 | O=C(Nc1cnc(-c2ccccc2)nc1C(=O)O)OCc1ccc(-c2ccccc2)cc1
81 to 83 | O=c1cc(NCCNCCOc2cccc3c2OCCO3)cn[nH]1
101 to 105 | CNC1CCN(C(=O)CC2=C(n3nc(-c4c(-c5ccccc5)nn5ccccc45)ccc3=O)CCCC2)CC1
> 250 | CC(C)n1nc(-c2nc(-c3cn[nH]c3)c(N)nc2-c2ccccc2)ccc1=O
162 to 164 | O=C(O)CCC1(CCC(=O)O)CCC(=O)N1
70 to 84 | Cc1ccc(OC2SCC(O)C(O)C2O)c(-c2c(C)noc2C)n1 (centres undefined)
78 to 83 | O=S(=O)(Oc1ccc(F)cc1)c1ccc(Oc2ccc(F)cc2)cc1
72.4 to 74.8 | O=C1CCc2cc3c(cc21)CCC3
157 to 159 | COc1ccc(-c2c(C(=O)N3CCOCC3)ccc3cc(Cl)ccc23)cc1OC
109 to 110 | C=C(c1ccccc1)c1ccc(N)c(N)c1
191 to 193 | CS(=O)(=O)c1ccc(C(=O)c2cnoc2C2CC2)c(C(F)(F)F)c1S(C)(=O)=O
99 to 100 | CCOC(=O)c1cnc(NC(=O)C(Cc2ccc(F)cc2)c2ccc(S(C)(=O)=O)cc2)cn1 (centres undefined)

melting point [°C] | Compound
109 | CCOC(=O)C1=C(C)NC(CCN(C)C)=C(C(=O)OCC)C1c1ccccc1/C=C(\C)C(=O)OCC (centres undefined)
264 to 268 | S=c1[nH]c(Nc2ccc(Cl)cc2)nc2ccccc12
125 | O=C(NCc1ccc(F)cc1)c1nc2n(c(=O)c1OCc1ccccc1)CCN2Cc1ccccc1
239 to 240 | CN(c1cccc2cc(C(N)=S)[nH]c12)S(=O)(=O)c1cccs1
78 | O=C(O)C1Cc2ccccc2N1S(=O)(=O)c1ccc(-c2cccc(Cl)c2)cc1 (centres undefined)
156 to 171 | CC(=O)Nc1ccc(C(=O)NC(=O)N2CCC(Cc3ccc(F)cc3)CC2)cc1
156 | CCCN1CCC=C(c2cccc3[nH]cc(Br)c23)C1
135 to 137 | Cc1ccccc1-c1ccc(Cl)cc1C(=O)O
170 to 173 | CCOP(=O)(CC(=O)Nc1c(C(C)C)cccc1C(C)C)c1ccccc1 (centres undefined)
70 | COC(=O)Cc1ccc(CNC(=O)C2Cc3ccccc3N2S(=O)(=O)c2ccc(-c3ccc(F)cc3Cl)cc2)cc1 (centres undefined)
87 to 88 | CCN(CC)c1nsc(N)c1C#N
> 250 | Cc1c2c(nn1Cc1ccccc1)c(N)nc1ccccc12
311 to 313 | O=c1[nH]c2ncc(-c3ccnc(O)c3)nc2n1CC1CCCCC1
161 to 162 | CCn1cc(C(=O)NCCCN(C)C)c(=O)c2ccc(I)cc21
100 to 104 | CN1C(=O)CC[C@]2(C)c3ccc(-c4cccc5ncccc45)cc3CC[C@@H]12
130 | CN(C)c1nc2[nH]c3c(c(=O)n2n1)SCCC3
208 to 210 | CCOC(=O)c1nc(-c2cccc([N+](=O)[O-])c2)[nH]c1-c1ccc(OC)cc1
178 to 180 | Cc1cc(C)c2c(c1)C(Nc1ncnc(N)n1)CCC2 (centres undefined)
186 to 187 | COC(=O)c1c(C(=O)OC)c2sc3ccccc3n2c1-c1ccc(F)cc1
122 to 124 | Cc1nccn1N=Cc1ccccc1

From a melting point compilation (Tetko et al.; mined from patent text by program, amines drawn as free bases though some values may be those of a salt)
